The text below walks through data of patent US8841233B2, “Herbicidal compositions comprising 4-amino-3-chloro-5-fluoro-6-(4-chloro-2-fluoro-3-methoxyphenyl) pyridine-2-carboxylic acid or a derivative thereof and 4-hydroxyphenyl-pyruvate dioxygenase (HPPD) inhibitors” (Dow Agrosciences LLC, priority 2012, dated 2014).

Common to all, as to assay: Pre-emergence soil-applied weed control, greenhouse (Example III)
The test system of test [1] is IPOHE. It counts as in vivo, Ipomoea hederacea (L.) Jacq. The following applies: 35 gai/ha. An excerpt: (§1) Evaluation of Pre-emergence Soil-Applied Herbicidal Mixtures for Weed Control
(§2) Seeds or nutlets of the desired test plant species were planted in a soil matrix prepared by mixing a loam soil (32 percent silt, 23 percent clay, and 45 percent sand, with a pH of about 6.5 and an organic matter content of about 1.9 percent) and calcareous grit in an 80 to 20 ratio. The soil matrix was contained in plastic pots with a volume of 1 quart and a surface area of 83.6 square centimeters (cm^2).
(§3) Treatments consisted of the benzyl ester of 4-amino-3-chloro-5-fluoro-6-(4-chloro-2-fluoro-3-methoxy-phenyl)pyridine-2-carboxylic acid (compound A) formulated as an SC (suspension concentrate) and various herbicidal components alone and in combination. Forms of compound A were applied on an acid equivalent basis.
(§4) Other herbicidal components were applied on an acid equivalent or active ingredient basis and included the 4-hydroxyphenyl pyruvate dioxygenase (HPPD)-inhibiting herbicide, isoxaflutole, formulated as Balance Pro®.
(§5) Treatment requirements were calculated based upon the rates being tested, the concentration of active ingredient or acid equivalent in the formulation, and a 12 mL application volume at a rate of 187 L/ha.
(§6) For treatments comprised of formulated compounds, measured amounts of compounds were placed individually in 25 mL glass vials and diluted in a volume of 1.25% (v/v) Agri-Dex® crop oil concentrate (COC) to obtain 12× stock solutions. […] Application solutions were prepared by adding an appropriate amount of each stock solution (e.g., 1 mL) and diluted to the appropriate final concentrations with the addition of 10 mL of an aqueous mixture of 1.25% (v/v) COC so that the final spray solutions contained 1.25% (v/v) COC.
(§7) All stock solutions and applications solutions were visually inspected for compound compatibility prior to application. Spray solutions were applied to the soil with an overhead Mandel track sprayer equipped with a 8002E nozzles calibrated to deliver 187 L/ha over an application area of 0.503 m^2 at a spray height of 18 inches (46 cm) above average pot height. Control pots were sprayed in the same manner with the solvent blank.
(§8) The treated and control pots were placed in a greenhouse and top watered as needed. When required to ensure good germination and healthy plants, a fungicide treatment and/or other chemical or physical treatment was applied. […] After approximately 4 weeks, the condition of the test plants as compared with that of the untreated plants was determined visually and scored on a scale of 0 to 100 percent where 0 corresponds to no injury or growth inhibition and 100 corresponds to complete kill. […]

The test system of test [2] is XANST. The test is classed as in vivo, Xanthium strumarium L. As to conditions: 35 gai/ha.
Source text: as §1, §2, §3, §4, §5, §6, §7, §8

Test [3] has as its system SETVI. It counts as in vivo, Setaria viridis (L.) Beauv.
Source text: as §1, §2, §3, §4, §5, §6, §7, §8

For `CS(=O)(=O)c1cc(C(F)(F)F)ccc1C(=O)c1cnoc1C1CC1` [Isoxaflutole, (5-cyclopropyl-4-isoxazolyl)[2-(methylsulfonyl)-4-(trifluoromethyl)phenyl]methanone, reference compound], the “Visual Weed Control (%) - 32 DAA IPOHE Obs” value in test [1] is 43%. In test [2], the “Visual Weed Control (%) - 32 DAA XANST Obs” value was found to be 75%. Moreover, the “Visual Weed Control (%) - 32 DAA SETVI Obs” value in test [3] (35 gai/ha) is listed as 50%; in test [3] (70 gai/ha), 93%.
